These results are taken from patent publication US20210087156A1, “PHARMACEUTICALLY ACCEPTABLE SALTS OF BENZODICYCLOALKANE DERIVATIVE, P[…] THEREOF, AND APPLICATION THEREOF” (priority 2018, published 2021).

Converted amounts (≈) assume the structure as drawn.

A short description of series [1]: In vivo test of rats: pharmacokinetics after oral administration. Particulars: male, SD, rat, 10 mg/kg, oral administration of dezocine in rats, dose of dezocine 10mpk. How it is done: LC-MS/MS method was applied for the determination of the drug concentration in plasma at different times after the example compounds were orally administered to rats in order to study the pharmacokinetic behavior of the compounds of the invention in vivo in rats and evaluate their pharmacokinetic characteristics.
Test Animals: healthy Adult male SD rats (weight 200-300 g, 3, fasted), provided by SLAC company;
Administration and Dosage: (16 mg/kg or 24 mg/kg, 10 mL/kg, 5% 1,2-propanediol (1,2-Propanediol, Shanghai Titan Technology Co., Ltd. Lot No.: P1057349)) was administered via oral gavage to SD rats;
Blood collection: firstly, the animals which were selected to meet the test requirements prior to administration were weighed. The rats were bound before the blood collection, blood from each administered rat was taken at predetermined time points, (blood was collected at 0.083, 0.25, 0.5, 1, 2, 4, 6, 8 h before and after administration respectively, 9 time points in total), about 150 μl of blood was collected via orbital vein. Blood was transferred to a 1.5 ml tube to which K2EDTA was added previously. The collected blood sample was put on ice, and centrifuged to obtain plasma sample (2000 g, 5 min under 4° C.) within 15 minutes. All the plasma samples were stored at approximately −70° C. until analysis.
LC/MS/MS method was applied to determine the concentrations of the drug. […]

For series [2] the following is noted: background statement, cited from earlier work.
The target in a further series is δ opioid receptors (Homo sapiens, UniProt P41143). Particulars: background statement; cited from earlier work.
Sequence of δ opioid receptors (P41143 whole entry): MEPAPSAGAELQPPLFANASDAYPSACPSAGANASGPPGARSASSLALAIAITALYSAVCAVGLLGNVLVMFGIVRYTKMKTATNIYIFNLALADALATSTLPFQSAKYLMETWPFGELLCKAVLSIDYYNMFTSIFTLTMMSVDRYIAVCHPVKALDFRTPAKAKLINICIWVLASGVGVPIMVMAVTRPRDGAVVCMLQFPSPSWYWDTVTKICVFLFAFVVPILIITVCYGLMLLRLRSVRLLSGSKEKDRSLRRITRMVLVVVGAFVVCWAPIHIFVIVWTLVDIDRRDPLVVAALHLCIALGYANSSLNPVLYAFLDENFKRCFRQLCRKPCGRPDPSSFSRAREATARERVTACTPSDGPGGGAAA
A short description of series [3]: Stability test of free base, crystal form A and crystal form C (content and related substance). It is filed as physicochemical. Conditions: 5° C. As to the method:
The crystal form and purity change were measured respectively on 3rd and 7th day. The results are shown in Table 6, FIGS. 22, 23, 24 and 25. […]

The nature of series [4]: Solubility test at room temperature. In kind it is physicochemical. Particulars: room temperature, shaken 24 h. How it is done:
The solubility of the crystal form A, the crystal form C and the free base in 0.1 M HCL, pH 4.5, or pH 6.8 buffer or water was tested at room temperature. In the test, the standard curves of the crystal form A, the crystal form C and the free base were plotted respectively. Subsequently, a appropriate amount of the crystal form A, the crystal form C and the free base was weighed respectively, to which was added a appropriate amount of solvent. The mixture was shaken at room temperature for 24 h, centrifuged. The supernatant was taken and the solubility was determined. The results are shown in Table 7, (the concentration unit is mg/mi).

Series [5] deals with T1, hERG potassium ion channel (Homo sapiens, UniProt Q12809).
T1 construct: host or cells: CHO cells stably expressing hERG
T1 sequence (Q12809 whole entry): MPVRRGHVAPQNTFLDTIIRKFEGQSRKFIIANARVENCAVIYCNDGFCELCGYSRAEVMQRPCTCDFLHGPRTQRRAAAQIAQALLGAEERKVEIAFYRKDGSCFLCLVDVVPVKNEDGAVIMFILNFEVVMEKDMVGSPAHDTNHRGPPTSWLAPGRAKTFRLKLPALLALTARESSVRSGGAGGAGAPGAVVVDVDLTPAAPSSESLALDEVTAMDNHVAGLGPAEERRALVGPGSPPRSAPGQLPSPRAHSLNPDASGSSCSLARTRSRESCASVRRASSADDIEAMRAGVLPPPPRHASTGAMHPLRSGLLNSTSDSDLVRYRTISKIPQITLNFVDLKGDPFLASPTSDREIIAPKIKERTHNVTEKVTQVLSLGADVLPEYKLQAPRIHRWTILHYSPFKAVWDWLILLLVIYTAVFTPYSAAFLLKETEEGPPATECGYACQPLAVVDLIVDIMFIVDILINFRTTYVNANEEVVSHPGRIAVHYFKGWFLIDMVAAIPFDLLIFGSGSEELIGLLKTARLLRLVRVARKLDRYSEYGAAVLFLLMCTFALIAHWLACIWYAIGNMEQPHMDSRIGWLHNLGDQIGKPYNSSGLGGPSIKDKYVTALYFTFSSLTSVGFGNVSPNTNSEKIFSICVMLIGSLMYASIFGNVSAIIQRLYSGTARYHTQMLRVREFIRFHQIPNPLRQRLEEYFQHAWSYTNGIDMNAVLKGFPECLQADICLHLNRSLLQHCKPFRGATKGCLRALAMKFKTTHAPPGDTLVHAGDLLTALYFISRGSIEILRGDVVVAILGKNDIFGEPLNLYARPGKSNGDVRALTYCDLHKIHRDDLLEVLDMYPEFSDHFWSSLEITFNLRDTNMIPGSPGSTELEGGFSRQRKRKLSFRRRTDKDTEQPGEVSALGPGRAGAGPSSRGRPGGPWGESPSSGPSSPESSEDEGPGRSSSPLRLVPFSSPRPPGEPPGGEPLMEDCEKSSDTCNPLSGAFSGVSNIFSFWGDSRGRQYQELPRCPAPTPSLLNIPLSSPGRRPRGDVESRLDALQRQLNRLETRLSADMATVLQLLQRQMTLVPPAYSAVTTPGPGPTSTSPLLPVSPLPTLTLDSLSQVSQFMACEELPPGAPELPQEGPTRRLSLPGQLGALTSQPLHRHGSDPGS
The series is described as follows: Inhibition of hERG potassium ion channel, manual whole-cell patch clamp in CHO hERG cells. In kind it is cell-based. How it is done:
2.1.1 Cells used in this experiment are CHO cell lines (supplied by Sophion Bioscience, Denmark) which are hERG cDNA transfectant and stably express hERG channels, cell progeny is P15. Cells are cultured in medium containing the following ingredients Invitrogen): Ham's F12 medium, 10% (v/v) inactivated fetal bovine serum, […] hygromycin B, […] Geneticin.
2.1.2 CHO hERG cells were grown in Petri dishes containing the above medium and cultured in an incubator containing 5% CO2 at 37° C. […]
In this experiment, whole-cell current recording was performed using a manual patch clamp system (HEKA EPC-10 signal amplification and digital conversion system, purchased from HEKA Electronic, Germany) The round glass slide of which surface CHO hERG cells were grown on was placed in an electrophysiological recording slot under an inverted microscope. […] The hERG potassium current recorded in the above steps should be superfused for test drug after the steady perfusion state of the extracellular fluid in the recording slot is stabilized until the inhibition of the hERG current by the drug reached a steady state. […]
The test data were analyzed by the data analysis software provided by HEKA Patchmaster (V2x73.2), Microsoft Excel and Graphpad Prism 5.0.

The next series addresses T2, CYP3A4 (Homo sapiens, UniProt P08684).
T2 construct: Add 200 μL of 0.2 mg/mL HLM to the assay wells; from tissue; host or cells: liver microsomes (HLM)
Description: Inhibition of CYP enzyme (CYP3A4, midazolam substrate, HLM). It is filed as in vitro ADME. How it is done:
1. Preheat 0.1 M potassium phosphate buffer (K-buffer), pH 7.4:
100 mM K-Buffer: mix 9.5 mL Stock A into 40.5 mL Stock B, bring total volume to 500 mL with Milli-Q water, titrate the buffer with KOH or H3PO4 to pH 7.4.
Stock A (1 M monobasic potassium phosphate): 136.5 g of monobasic potassium phosphate in 1 L of Milli-Q water.
Stock B (1 M dibasic potassium phosphate): 174.2 g of dibasic potassium phosphate in 1 L of Milli-Q water.
2. Prepare serial dilution for test compounds and reference inhibitors (400×) in a 96-well plate:
2.1 Transfer 8 μL of 10 mM test compounds to 12 μL of ACN.
2.2 Prepare individual inhibitor spiking solution for reference: 8 μL of DMSO stock to 12 μL of ACN.
2.3 Prepare 1:3 serial dilutions in DMSO:ACN mixture (v/v: 40:60).
3. Prepare 4×NADPH cofactor (66.7 mg NADPH in 10 mL 0.1 M K-buffer, pH7.4).
4. Prepare 4×substrate (2 mL for each isoform) as indicated in the table below (add HLM where required on ice).
5. Prepare 0.2 mg/mL HLM solution (10 μL of 20 mg/mL to 990 μL of 0.1 M K-buffer) on ice.
6. Add 200 μL of 0.2 mg/mL HLM to the assay wells and then add 1 μL of test compounds or reference compounds into the designated wells on ice.
7. Add following solutions (in duplicate) in a 96-well assay plate on ice:
7.1 Add 30 μL of 2×test compounds and reference compound in 0.2 mg/mL HLM solution;
7.2 Add 15 μL of 4×substrate solution.
8. […]

A short description of series [6]: Potency compared with the existing dezocine (statement, no method given).

T2 sequence (P08684 whole entry): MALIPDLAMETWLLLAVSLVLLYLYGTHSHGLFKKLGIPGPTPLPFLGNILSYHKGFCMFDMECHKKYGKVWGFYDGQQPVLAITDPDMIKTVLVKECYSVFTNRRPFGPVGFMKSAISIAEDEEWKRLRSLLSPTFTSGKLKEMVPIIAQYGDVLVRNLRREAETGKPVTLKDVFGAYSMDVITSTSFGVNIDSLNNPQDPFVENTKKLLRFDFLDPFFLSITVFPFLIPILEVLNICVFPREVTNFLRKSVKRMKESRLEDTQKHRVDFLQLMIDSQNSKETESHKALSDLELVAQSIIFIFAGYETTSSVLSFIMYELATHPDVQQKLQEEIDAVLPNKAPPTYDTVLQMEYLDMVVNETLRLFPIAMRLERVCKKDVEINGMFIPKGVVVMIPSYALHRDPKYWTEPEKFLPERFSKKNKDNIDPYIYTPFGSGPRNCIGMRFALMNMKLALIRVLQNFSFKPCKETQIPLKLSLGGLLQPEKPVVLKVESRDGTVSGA

In turn, `C[C@@]12CCCCC[C@@H](Cc3ccc(O)cc31)[C@@H]2N` [dezocine] yielded an AUC in series [1] of 58.6 ng·h/mL. In series [2], the oral bioavailability is at most 5%. Moreover, the “time after which the blood drug concentration falls below the effective level” value in series [2] (injection) was 2 to 3 h. Moreover, the “activity on δ opioid receptors (in words)” value on δ opioid receptors was “very weak”.

Regarding `C[C@@]12CCCCC[C@@H](Cc3ccc(OC(=O)NC4COC4)cc31)[C@@H]2N` [free base of Compound X], in series [3] (0 d), the “RRT(%) 0.76 (related substance)” value was determined as 1.19%, the “RRT(%) 1.29 (related substance)” value turned out to be 3.35%, the “RRT(%) 1.53 (related substance)” value amounted to 0.18% and the “RRT(%) 1.59 (related substance)” value is 0.97%. In addition, the “RRT(%) 1.75 (related substance)” value in series [3] (0 d) was found to be 0.43%. For the same compound, in series [3] (0 d (control)), the “Area (%)” value is given as 93.88%, the “Total impurity (%)” value turned out to be 6.12% and the character result was “off-white solid”. Also, in series [4] (0.1M HCL), the “Final pH” value is listed as 1.30, the phenomenon result is “Flocculent” and the solubility was 18860 µg/mL (≈ 54.8 mM). Also, in series [4] (H2O), the “Final pH” value stood at 8.61, the phenomenon entry is listed as “turbid” and the solubility came out at 50 µg/mL (≈ 0.145 mM). Besides, in series [4] (pH 4.5 buffer), the “Final pH” value came to 6.41, the phenomenon entry is “turbid” and the solubility amounted to 3750 µg/mL (≈ 10.9 mM). Besides, in series [4] (pH 6.8 buffer), the “Final pH” value is recorded as 6.78, the phenomenon result is “turbid” and the solubility worked out at 2030 µg/mL (≈ 5.89 mM). The “inhibitory activity on the hERG potassium ion channel (in words)” value in series [5] (10 μM) was “little inhibitory activity”. In series [5] (human, CHO cells stably expressing hERG channels, CHO hERG cells, patch clamp, ~25° C.), this compound yielded an inhibition at 10 μM of 20.6%. In addition, at CYP3A4 (1 μM), the “inhibitory activity on CYP3A4 (in words)” value was “little inhibitory activity”. Further, the inhibition at 5 min, 1 μM on CYP3A4 (human, human liver microsomes, pH 7.4, probe midazolam, substrate midazolam (M), 0.1 mg/mL HLM, read-out: CYP3A4(M) inhibition rate/1 μM) is 23.8%. Further, the “potency compared with the existing dezocine” value in series [6] is on record as “increased more than three-fold”.
